Data as given in patent US20040242678A1, “Apolipo protein e secretion promoters” (priority 2001, published 2004).

Legend:
[1] = system: foamed C57BL/6J mouse-derived macrophages; assay: ApoE secretion-promoting effect in foamed mouse peritoneal macrophages (Western blotting of supernatants); format: cell-based; details: BO-653 added at 3 and 10 μmol/L, 24 hours of culture, anti-mouse ApoE antibody, FIG. 1
Method: (§1) 4.05 w/v % thioglycollate-elicited intraperitoneally exuded cells were prepared from C57BL/6J and ApoE-deficient mice. The cells were inoculated on 12-well plate at 1.0×10^6 cells/well. The cells were cultured at 37° C. under 5 vol % CO2. After 3 hours of culture, the culture medium was changed to a fresh one to remove inadhesive cells, leaving mouse-peritoneal macrophages in each of the wells. Next day, the mouse-peritoneal macrophages were cultured in a medium containing 50 μg of protein per mL of acetylated LDL for 24 hours to form foam cells.
(§2) To the wells containing the foamed C57BL/6J mouse-derived macrophages, 4,6-di-t-butyl-2,2-dipentyl-5-hydroxy-2,3-dihydrobenzofuran (BO-653) was added to final concentrations of 0, 3 and 10 μmol/L. After 24 hours of culture, the supernatants were collected to prepare samples for SDS-PAGE.
The samples were subjected to 10 w/v % SDS-PAGE. Following the SDS-PAGE, the bands were transferred onto nitrocellulose papers using semi-drying method and blocked with TBS containing 10 w/v % skim milk and 0.1 vol % Tween-20. Rabbit anti-mouse ApoE-antibody (#K23100R, BIODESIGN) and peroxidase-labeled anti-rabbit IgG antibody (#7071-1, Cell Signaling TECHNOLOGY) were used as the first and secondary antibodies, respectively. ApoE was detected using chemoluminescence method (PIERCE).

[2] = system: foamed C57BL/6J mouse-derived macrophages; assay: Intracellular cholesterol-removing effect in foamed macrophages (enzymatic total cholesterol measurement); format: cell-based; details: for Cholesterol Reduction (%) Means: 24 hours, relative to the vehicle (0 μmol/L = 100.0)
Method: as §1, §2
On the other hand, the foamed macrophages which were cultured in the presence of BO-653 and harvested at the same time as the collection of the supernatants were extracted with a mixed solvent of hexane/2-propanol (3:2 v/v) to obtain lipids. Then, the total amount of cholesterol in the lipids was measured using the enzymatic method described by Yoshiki Kawabe et al., “Oxidation-Induced Aggregation of Rabbit Low-Density Lipoprotein by Azo Initiator”, Achieves of Biochemistry and Biophysics 310, 489-496 (1994). We regarded the total amount of cholesterol as intracellular cholesterol content of the macrophages.

[3] = system: C57BL/6J mice; assay: ApoE increasing effect in mouse serum (SDS-PAGE of lipoprotein-containing fractions); format: in vivo; details: high fat diet containing 0.65% BO-653 for 5 weeks versus high fat diet with no BO-653, FIG. 2
Method: Seven-week-old C57BL/6J mice were divided into first group of three and second group of four. The animals of the first and second groups were fed a high fat diet containing no BO-653 and 0.65% BO-653, respectively. After 5 weeks of diet initiation, the animals were anesthetized with ether and their blood was individually drawn from vena cava descendens. Serum samples were prepared from the drawn blood and 100 μL of each of the samples was placed into a tube. To the tube, 900 μL of sodium bromide solution having 1.256 density was added, and the tube was centrifuged in TL-100 desk type ultracentrifuge at 100,000 rpm for 20 hours using TLA-100.2 rotor. Lipoprotein-containing fraction thus obtained was collected and treated with 10 w/v % trichloroacetic acid solution. The precipitate was collected and dissolved into 80 μL of solution for SDS-PAGE. 10 μL of the solution was subjected to 15 w/v % SDS-PAGE and the gels were stained with Coomassie brilliant blue. By comparing the bands with molecular weight markers, ApoE was identified.

For `CCCCCC1(CCCCC)Cc2c(cc(C(C)(C)C)c(O)c2C(C)(C)C)O1` [BO-653, 4,6-di-t-butyl-2,2-dipentyl-5-hydroxy-2,3-dihydrobenzofuran], the “saccharified-ApoE expression in culture supernatant” value [1] was “increased saccharified-ApoE expression”, the “Cholesterol Reduction (%) Means” value ([2]; BO-653 3 μmol/L) was 132.6% and the “Cholesterol Reduction (%) Means” value ([2]; BO-653 10 μmol/L) was 145.9%. The “intracellular cholesterol content of macrophages” value ([2]; treatment with BO-653, 24 hours, result in words) was “decrease in intracellular cholesterol content” and the “ApoE production in serum lipoprotein-containing fraction” value [3] was “increased ApoE production”.
